Test results taken from patent US7119206B2, “Derivative of dihydro-dibenzo (a) anthracenes and their use as selective estrogen receptor modulators” (Eli Lilly and Company, priority 2002, dated 2006).
Structures can show the parent of a compound that is named as a salt. Where two headings read alike, the source gives them in different places.

Experiments:
[1] = test system: Ishikawa human endometrial tumor cells; test: Ishikawa cell assay (PNPP readout), antagonist mode; type: cell-based; settings: with 1 nM E2
Description: (§1) Ishikawa human endometrial tumor cells are maintained in MEM (minimum essential medium, with Earle's salts and L-Glutamine, Gibco BRL, Gaithersburg, Md.), supplemented with 10% fetal bovine serum (FBS) (V/V), (Gibco BRL). One day prior to assay, growth media is changed to assay medium, DMEM/F-12 (3:1) (Dulbecco's Modified Eagle Medium: Nutrient Mixture F-12, 3:1 Mixture, phenol red-free, Gibco BRL) supplemented with 5% dextran coated charcoal stripped fetal bovine serum (DCC-FBS) (Hyclone, Logen, Utah), L-Glutamine (2 mM), MEM sodium pyruvate (1 mM), HEPES (N-[2-hydroxyethyl]piperazine-N′-[2-ethanesulfonic acid] 2 mM) all from Gibco BRL). After an overnight incubation, ishikawa cells are rinsed with Dulbecco's Phosphate Buffered Saline (1×) (D-PBS) without Ca^+2 and Mg^+2 (Gibco BRL), and trypsinized by a 3 minute incubation with 0.25% Trypsin/EDTA, phenol red-free (Gibco BRL). Cells are resuspended in assay medium and adjusted to 250,000 cells/ml. Approximately 25,000 cells in a 100 ul media are added to flat-bottom 96 wells microculture plates (Costar 3596) and incubated at 37° C. in a 5% CO2 humidified incubator for 24 hours. The next day, serial dilutions of compounds are prepared in assay medium (at 6 times the final concentration in the assay). The assay is run in dual mode, agonist and antagonist modes. For the agonist mode, plates receive 25 μl/well of assay medium followed by 25 μl/well of diluted compounds (at 6× the final concentrations). For the antagonist mode, plates receive 25 μl/well of 6 nM E2 (β-Estradiol, Sigma, St. Louis, Mo.) followed by 25 μl/well of diluted compounds (at 6× the final concentrations). After an additional 48-hour incubation at 37° C. in a 5% CO2 humidified incubator, media is aspirated from wells and 100 μl fresh assay medium is added to each microculture. Serial dilutions of compounds are prepared and added to the cells as described above. After an additional 72 hour incubation at 37° C. in a 5% CO2 humidified incubator, the assay is quenched by removing media and rinsing plates twice in Dulbecco's Phosphate Buffered Saline (1×) (D-PBS) (Gibco BRL). The plates are dried for 5 min and frozen at −70° C. for at least 1 hour. The plates are then removed from the freezer and allowed to thaw at room temperature. To each well, 100 μl of 1-Step™ PNPP (Pierce Chemical Company, Rockford, Ill.) is added. After a 20-minute incubation, plates are read on a spectophotometer at 405 nm. The data is fitted to a linear interpolation to derive EC50 (for agonist mode) or IC50 (for antagonist mode) values. For the agonist mode, a % efficacy for each compound is calculated versus the response to Tamoxifen. For the antagonist mode, a % efficacy for each compound is calculated versus E2 (1 nM) alone.

[2] = test system: MCF-7 breast adenocarcinoma cells; test: MCF-7 proliferation assay (14C-thymidine), antagonist mode; type: cell-based; settings: with 10 pM E2
Method: MCF-7 breast adenocarcinoma cells (ATCC HTB 22) are maintained in MEM (minimal essential medium, phenol red-free, Gibco BRL) supplemented with 10% fetal bovine serum (FBS) (V/V), L-glutamine (2 mM), sodium pyruvate (1 mM), HEPES ((N-[2-hydroxyethyl]piperazine-N′-[2-ethanesulfonic acid]10 mM}, non-essential amino acids(0.1 mM)and Penicillin Streptomycin(1×). Seven days prior to assay, MCF-7 cells are switched to assay media which is the same as maintenance medium except supplemented with 10% dextran-coated charcoal-stripped fetal bovine serum (DCC-FBS) assay medium in place of 10% FBS. MCF-7 cells are removed from flasks using 10× Trypsin EDTA (phenol red free, Gibco BRL) and diluted to 1× in (Ca++/Mg++ free HBSS (phenol red-free). Cells are adjusted to 80,000 cells/ml in assay medium. Approximately 8,000 cells (100 μl) are added to each well in 96 well Cytostar T scintillation plates (Amersham) and incubated at 37° C. in a 5% CO2 humidified incubator for 24 hours to allow cell adherence and equilibration after transfer. Serial dilutions of drugs are prepared in assay medium at 4× the final desired concentration). A 50 μl aliquot of drug dilutions (at 4× the final assay concentration) is transferred to duplicate wells followed by 50 μl assay medium for the agonist mode or 50 μl of 40 pM of E2 for the antagonist mode to a final volume of 200 μl. For each of the agonist plates, a basal level (media) and a maximum stimulated level (with 1 μM E2) is determined. For each of the antagonist plates, a basal level (media) and a E2 (10 pM) alone control is determined. After an additional 48 hours at 37° C. in a 5% CO2 humidified incubator, 20 μl of assay medium containing 0.01 μCi of ^14C-thymidine (52 mCi/mmol, […], Amersham) is added to each well. The plates are incubated overnight in the same incubator and then counted on the Wallac Microbeta counter. […] For the agonist mode, an EC50 and percent of maximum E2 stimulation and concentration of maximum stimulation is calculated.

[3] = molecular target: T1, ERbeta receptor (Homo sapiens, UniProt Q92731); test: ER beta competition binding assay (3H-Estradiol); settings: 3H-Estradiol competition; IC50 converted to Ki using Cheng-Prusoff; read-out: ER binding Ki (ERβ)
T1 construct: purchased PanVera
Method: (§2) Competition binding assay is run in a buffer containing 50 mM Hepes, pH 7.5, 1.5 mM EDTA, 150 mM NaCl, 10% glycerol, 1 mg/ml ovalbumin and 5 mM DTT, using 0.025 μCi per well ^3H-Estradiol(NEN #NET517 at 118 Ci/mmol, 1 mCi/ml), 10 ng/well ERAlpha or ERbeta receptor (PanVera). Competing compounds are added at 10 different concentrations. Non-specific binding is determined in the presence of 1 μM of 17-B Estradiol. The binding reaction (140 μl) is incubated for 4 hours at room temperature, then 70 μl of cold DCC buffer is added to each reaction (DCC buffer contains per 50 ml of assay buffer, 0.75 g of charcoal (Sigma) and 0.25 g of dextran (Pharmacia)). Plates are mixed 8 minutes on an orbital shaker at 4° C. Plates are then centrifuged at 3,000 rpm at 4° C. for 10 minutes. An aliquot of 120 μl of the mix is transferred to another 96-well, white flat bottom plate (Costar) and 175 μl of Wallac Optiphase “Hisafe 3” scintillation fluid is added to each well. Plates are sealed and shaken vigorously on an orbital shaker. After an incubation of 2.5 hrs, read plates in a Wallac Microbeta counter. […] The Kd for ^3H-Estradiol is determined by saturation binding to ER alpha and ER beta receptors. The IC50 values for compounds are converted to Ki using Cheng-Prusoff equation and the Kd determined by saturation binding assay.

[4] = test system: Ishikawa human endometrial tumor cells; test: Ishikawa cell assay (PNPP readout), agonist mode; type: cell-based; settings: for Emax / Ishikawa Agonist % Eff: % efficacy versus the response to Tamoxifen; for Emax: read-out: Ishikawa Agonist % Eff
Description: as §1

[5] = molecular target: T2, ERAlpha receptor (Homo sapiens, UniProt P03372); test: ER alpha competition binding assay (3H-Estradiol); settings: 3H-Estradiol competition; IC50 converted to Ki using Cheng-Prusoff; read-out: ER binding Ki (ERα)
T2 construct: purchased PanVera
T2 sequence (P03372 1-595): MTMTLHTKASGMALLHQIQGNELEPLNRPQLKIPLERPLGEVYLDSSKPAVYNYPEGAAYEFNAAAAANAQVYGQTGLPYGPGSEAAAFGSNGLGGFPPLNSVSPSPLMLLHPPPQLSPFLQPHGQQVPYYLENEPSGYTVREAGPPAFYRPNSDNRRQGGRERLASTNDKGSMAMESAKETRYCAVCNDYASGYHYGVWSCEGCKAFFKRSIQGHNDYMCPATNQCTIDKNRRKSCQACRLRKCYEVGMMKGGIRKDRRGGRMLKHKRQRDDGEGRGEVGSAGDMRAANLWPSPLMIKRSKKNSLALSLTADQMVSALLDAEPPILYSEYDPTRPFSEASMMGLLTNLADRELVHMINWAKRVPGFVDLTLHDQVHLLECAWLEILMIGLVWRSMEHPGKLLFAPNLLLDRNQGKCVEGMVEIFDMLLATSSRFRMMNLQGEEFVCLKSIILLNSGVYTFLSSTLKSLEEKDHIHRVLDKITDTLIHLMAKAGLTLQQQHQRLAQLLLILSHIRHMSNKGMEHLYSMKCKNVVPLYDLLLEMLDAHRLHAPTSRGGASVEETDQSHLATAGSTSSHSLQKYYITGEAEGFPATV
Method: as §2

[6] = Homo sapiens, MCF7, antagonist mode

T1 sequence (Q92731 whole entry): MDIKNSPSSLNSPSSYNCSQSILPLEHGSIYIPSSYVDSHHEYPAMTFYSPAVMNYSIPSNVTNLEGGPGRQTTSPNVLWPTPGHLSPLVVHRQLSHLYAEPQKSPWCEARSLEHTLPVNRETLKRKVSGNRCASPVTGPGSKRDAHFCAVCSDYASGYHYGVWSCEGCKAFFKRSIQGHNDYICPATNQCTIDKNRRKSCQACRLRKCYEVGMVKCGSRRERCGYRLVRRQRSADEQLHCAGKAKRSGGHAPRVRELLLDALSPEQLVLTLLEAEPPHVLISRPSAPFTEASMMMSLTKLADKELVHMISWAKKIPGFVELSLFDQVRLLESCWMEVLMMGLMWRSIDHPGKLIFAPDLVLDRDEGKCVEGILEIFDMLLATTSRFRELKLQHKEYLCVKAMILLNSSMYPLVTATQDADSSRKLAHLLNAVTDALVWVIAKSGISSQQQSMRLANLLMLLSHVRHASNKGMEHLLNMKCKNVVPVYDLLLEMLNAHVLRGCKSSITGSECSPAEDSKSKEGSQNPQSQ

| SMILES | IC50 [1] | IC50 [2, 6] | Ki [3] | EC50 ([4]; Homo sapiens, Ishikawa) | Ki [5] | IC50 ([2]; antagonist mode) | EC50 [4] | Emax ([4]; Homo sapiens, Ishikawa) | Ishikawa Agonist % Eff [4] |
| --- | --- | --- | --- | --- | --- | --- | --- | --- | --- |
| Oc1ccc2c3c(ccc2c1)Cc1cccc(O)c1C3c1ccc(OCCN2CCCCC2)cc1 (stereo not shown) [Example 12, 12-[4-(2-Piperidin-1-yl-ethoxy)-phenyl]-7,12-dihydro-benzo[a]anthracene-3,11-diol] | 582 nM | 68 nM | 40 nM | 28 nM | 8 nM | – | – | 77% | – |
| Oc1ccc2c3c(ccc2c1)Cc1ccc(F)cc1C3c1ccc(OCCN2CCCCC2)cc1 (single isomer, unassigned) [Example 6, 10-fluoro-12-[4-(2-piperidin-1-yl-ethoxy)-phenyl]-7,12-dihydro-benzo[a]anthracen-3-ol] | – | – | 149 nM | – | 70 nM | – | – | 69% | – |
| Oc1ccc2c(c1)Cc1ccc3cc(O)ccc3c1C2c1ccc(OCCN2CCCCC2)cc1 (racemic) [Example 11, 12-[4-(2-piperidin-1-yl-ethoxy)-phenyl]-7,12-dihydro-benzo[a]anthracene-3,9-diol] | – | – | 4 nM | – | – | 2 nM | 1 nM | – | 19% |
| Oc1ccc2c3c(ccc2c1)Cc1ccc(F)cc1C3c1ccc(OCCN2CCCCC2)cc1 (single isomer, unassigned) [Example 7, 10-fluoro-12-[4-(2-piperidin-1-yl-ethoxy)-phenyl]-7,12-dihydro-benzo[a]anthracen-3-ol] | 440 nM | – | 9 nM | – | – | – | – | – | – |
| Oc1ccc2c3c(ccc2c1)Cc1ccc(F)cc1C3c1ccc(OCCN2CCCCC2)cc1 (racemic) [Example 5, 10-Fluoro-12-[4-(2-piperidin-1-yl-ethoxy)-phenyl]-7,12-dihydro-benzo[a]anthracen-3-ol] | 610 nM | 91 nM | 31 nM | 11 nM | 3 nM | – | – | 79% | – |
| Oc1ccc2c3c(ccc2c1)Cc1ccc(F)cc1C3c1ccc(OCCN2CCCCC2)cc1 (racemic) [Example 6, 10-fluoro-12-[4-(2-piperidin-1-yl-ethoxy)-phenyl]-7,12-dihydro-benzo[a]anthracen-3-ol] | – | – | – | – | – | 740 nM | 116 nM | – | – |
| Oc1ccc2c3c(ccc2c1)Cc1ccc(F)cc1C3c1ccc(OCCN2CCCCC2)cc1 (racemic) [Example 7, 10-fluoro-12-[4-(2-piperidin-1-yl-ethoxy)-phenyl]-7,12-dihydro-benzo[a]anthracen-3-ol] | – | – | – | – | 1 nM | 9 nM | 3 nM | – | 72% |
| Oc1ccc2c3c(ccc2c1)Cc1c(O)cccc1C3c1ccc(OCCN2CCCCC2)cc1 (stereo not shown) [Example 13, 12-[4-(2-Piperidin-1-yl-ethoxy)-phenyl]-7,12-dihydro-benzo[a]anthracene-3,8-diol] | 50 nM | 3 nM | 5 nM | 1 nM | 1 nM | – | – | 121% | – |

Continued, in another order:

| IC50 [1] | IC50 [2, 6] | Ki [3] | EC50 ([4]; Homo sapiens, Ishikawa) | Ki [5] | IC50 ([2]; antagonist mode) | EC50 [4] | SMILES | Emax ([4]; Homo sapiens, Ishikawa) | Ishikawa Agonist % Eff [4] |
| --- | --- | --- | --- | --- | --- | --- | --- | --- | --- |
| 53 nM | 1 nM | 1 nM | 1 nM | 1 nM | – | – | Oc1ccc2c(c1)C(c1ccc(OCCN3CCCCC3)cc1)c1c(sc3cc(O)ccc13)C2 (stereo not shown) [Example 4, 11-[4-(2-Piperidin-1-yl-ethoxy)-phenyl]-6,11-dihydro-benzo[b]naphtho[2,3-d]thiophene-3,9-diol] | 56% | – |
| – | – | 5 nM | – | – | – | 3 nM | Oc1ccc2c(c1)Cc1ccc3cc(O)ccc3c1C2c1ccc(OCCN2CCCCC2)cc1 (racemic) [Example 10, 12-[4-(2-piperidin-1-yl-ethoxy)-phenyl]-7,12-dihydro-benzo[a]anthracene-3,9-diol] | – | 56% |
| – | – | 4 nM | – | – | 2 nM | 1 nM | Oc1ccc2c(c1)Cc1ccc3cc(O)ccc3c1C2c1ccc(OCCN2CCCCC2)cc1 (racemic) [Example 9, 12-[4-(2-Piperidin-1-yl-ethoxy)-phenyl]-7,12-dihydro-benzo[a]anthracene-3,9-diol] | – | 27% |
| 45 nM | 1 nM | 1 nM | 0.5 nM | 1 nM | – | – | Oc1ccc2c(c1)Cc1sc3cc(O)ccc3c1C2c1ccc(OCCN2CCCCC2)cc1 (stereo not shown) [Example 2, 11-[4-(2-Piperidin-1-yl-ethoxy)-phenyl]-6,11-dihydro-benzo[b]naphtho[2,3-d]thiophene-3,8-diol trifluoroacetate] | 103% | – |
